The record followed here is ChEMBL document CHEMBL3351986, “Probing linker design in citric acid-ciprofloxacin conjugates” (2014).

In brackets after ≈: the same amount, converted by molar mass. Activity calls are given as the source filed them. Bounds are passed on as bounds.

The subject of one assay is Staphylococcus aureus. The assay is described as follows: Antimicrobial activity against Staphylococcus aureus BIG 52 after 18 hrs by micro dilution method. In kind it is functional. As to conditions: BIG 52, 18 h.
Regarding `O=C(O)CC(O)(CC(=O)NCC(=O)N1CCN(c2cc3c(cc2F)c(=O)c(C(=O)O)cn3C2CC2)CC1)C(=O)O` (racemic), the MIC (in general, the smallest concentration in the dilution series that meets the test's criterion for growth inhibition) turned out to be 16 µg/mL (≈ 28.4 µM).

In a further assay the test system is Staphylococcus epidermidis. The assay is described as follows: Antimicrobial activity against Staphylococcus epidermidis NCTC 11047 after 18 hrs by micro dilution method. The assay is classed as functional. As to conditions: NCTC 11047, 18 h.
Compound `O=C(O)CC(O)(CC(=O)NCC(=O)N1CCN(c2cc3c(cc2F)c(=O)c(C(=O)O)cn3C2CC2)CC1)C(=O)O` (racemic) gave an MIC of 16 µg/mL (≈ 28.4 µM).

The test system of the next assay is Staphylococcus epidermidis. Kind of assay: Antimicrobial activity against Staphylococcus epidermidis NCTC 2749 after 18 hrs by micro dilution method. Particulars: NCTC 2749, 18 h. In kind it is functional.
The compound `O=C(O)CC(O)(CC(=O)NCC(=O)N1CCN(c2cc3c(cc2F)c(=O)c(C(=O)O)cn3C2CC2)CC1)C(=O)O` (racemic) registered a minimum inhibitory concentration (MIC) of 8 µg/mL (≈ 14.2 µM).

The subject of another assay is Staphylococcus haemolyticus. The assay is described as follows: Antimicrobial activity against Staphylococcus haemolyticus NCTC 11042 after 18 hrs by micro dilution method. In kind it is functional. Particulars: NCTC 11042, 18 h.
Compound `O=C(O)CC(O)(CC(=O)NCC(=O)N1CCN(c2cc3c(cc2F)c(=O)c(C(=O)O)cn3C2CC2)CC1)C(=O)O` (racemic) registered an MIC of 16 µg/mL (≈ 28.4 µM).

The test system of a further assay is Escherichia coli. Kind of assay: Antimicrobial activity against Escherichia coli NCTC 10418 after 18 hrs by micro dilution method. In kind it is functional. Particulars: NCTC 10418, 18 h.
The compound `O=C(O)CC(O)(CC(=O)NCC(=O)N1CCN(c2cc3c(cc2F)c(=O)c(C(=O)O)cn3C2CC2)CC1)C(=O)O` (racemic) gave an MIC of 0.125 µg/mL (≈ 0.222 µM).

In a further assay the test system is Escherichia coli. The assay is described as follows: Antimicrobial activity against Escherichia coli BIG 0046 after 18 hrs by micro dilution method. In kind it is functional. Particulars: BIG 0046, 18 h.
In turn, `O=C(O)CC(O)(CC(=O)NCC(=O)N1CCN(c2cc3c(cc2F)c(=O)c(C(=O)O)cn3C2CC2)CC1)C(=O)O` (racemic) showed a minimal inhibitory concentration (MIC) of 36 µg/mL (≈ 64 µM).

The next assay concerns Pseudomonas aeruginosa. The assay is described as follows: Antimicrobial activity against Pseudomonas aeruginosa environmental isolate BIG 39 after 18 hrs by micro dilution method. Particulars: BIG 39, 18 h. In kind it is functional.
Turning to `O=C(O)CC(O)(CC(=O)NCC(=O)N1CCN(c2cc3c(cc2F)c(=O)c(C(=O)O)cn3C2CC2)CC1)C(=O)O` (racemic), the MIC amounted to 2 µg/mL (≈ 3.56 µM).

Another assay deals with Pseudomonas aeruginosa. The assay is described as follows: Antimicrobial activity against Pseudomonas aeruginosa BIG 37 clinical isolate after 18 hrs by micro dilution method. In kind it is functional. Particulars: BIG 37, 18 h.
`O=C(O)CC(O)(CC(=O)NCC(=O)N1CCN(c2cc3c(cc2F)c(=O)c(C(=O)O)cn3C2CC2)CC1)C(=O)O` (racemic) showed a minimum inhibitory concentration (MIC) of 16 µg/mL (≈ 28.4 µM).

In another assay the test system is Pseudomonas aeruginosa. Kind of assay: Antimicrobial activity against Pseudomonas aeruginosa NCTC 10662 after 18 hrs by micro dilution method. As to conditions: NCTC 10662, 18 h. The assay is classed as functional.
`O=C(O)CC(O)(CC(=O)NCC(=O)N1CCN(c2cc3c(cc2F)c(=O)c(C(=O)O)cn3C2CC2)CC1)C(=O)O` (racemic) yielded a minimum inhibitory concentration (MIC) of 2 µg/mL (≈ 3.56 µM).

A further assay relates to Pseudomonas aeruginosa. Kind of assay: Antimicrobial activity against Pseudomonas aeruginosa BIG 63 after 18 hrs by micro dilution method. Particulars: BIG 63, 18 h. The assay is classed as functional.
The compound `O=C(O)CC(O)(CC(=O)NCC(=O)N1CCN(c2cc3c(cc2F)c(=O)c(C(=O)O)cn3C2CC2)CC1)C(=O)O` (racemic) registered a minimum inhibitory concentration (MIC) of 8 µg/mL (≈ 14.2 µM).

The subject of the next assay is Serratia marcescens. Kind of assay: Antimicrobial activity against Serratia marcescens BIG 11 NCTC 1377 after 18 hrs by micro dilution method. Particulars: BIG 11 NCTC 1377, 18 h. The assay is classed as functional.
Consider `O=C(O)CC(O)(CC(=O)NCC(=O)N1CCN(c2cc3c(cc2F)c(=O)c(C(=O)O)cn3C2CC2)CC1)C(=O)O` (racemic), for which the MIC was found to be 0.5 µg/mL (≈ 0.889 µM).

In the next assay the test system is Burkholderia cepacia. Kind of assay: Antimicrobial activity against Burkholderia cepacia BIG 9 NCTC 10744 after 18 hrs by micro dilution method. The assay is classed as functional. As to conditions: BIG 9 NCTC 10744, 18 h.
Regarding `O=C(O)CC(O)(CC(=O)NCC(=O)N1CCN(c2cc3c(cc2F)c(=O)c(C(=O)O)cn3C2CC2)CC1)C(=O)O` (racemic), inhibition of growth (MIC) required 8 µg/mL (≈ 14.2 µM).

The next assay relates to Burkholderia cepacia. Kind of assay: Antimicrobial activity against Burkholderia cepacia BIG 117 after 18 hrs by micro dilution method. In kind it is functional. As to conditions: BIG 117, 18 h.
For `O=C(O)CC(O)(CC(=O)NCC(=O)N1CCN(c2cc3c(cc2F)c(=O)c(C(=O)O)cn3C2CC2)CC1)C(=O)O` (racemic), inhibition of growth (MIC) required 8 µg/mL (≈ 14.2 µM).

A further assay concerns Burkholderia cepacia. The assay is described as follows: Antimicrobial activity against Burkholderia cepacia BIG 118 after 18 hrs by micro dilution method. In kind it is functional. As to conditions: BIG 118, 18 h.
As to `O=C(O)CC(O)(CC(=O)NCC(=O)N1CCN(c2cc3c(cc2F)c(=O)c(C(=O)O)cn3C2CC2)CC1)C(=O)O` (racemic), the MIC is 8 µg/mL (≈ 14.2 µM).

The test system of another assay is Burkholderia cepacia. Kind of assay: Antimicrobial activity against Burkholderia cepacia BIG 119 after 18 hrs by micro dilution method. The assay is classed as functional. Particulars: BIG 119, 18 h.
Compound `O=C(O)CC(O)(CC(=O)NCC(=O)N1CCN(c2cc3c(cc2F)c(=O)c(C(=O)O)cn3C2CC2)CC1)C(=O)O` (racemic) had a minimal inhibitory concentration (MIC) of 32 µg/mL (≈ 56.9 µM).

The test system of the next assay is Burkholderia cepacia. The assay is described as follows: Antimicrobial activity against Burkholderia cepacia BIG 120 after 18 hrs by micro dilution method. Particulars: BIG 120, 18 h. The assay is classed as functional.
`O=C(O)CC(O)(CC(=O)NCC(=O)N1CCN(c2cc3c(cc2F)c(=O)c(C(=O)O)cn3C2CC2)CC1)C(=O)O` (racemic) returned a minimum inhibitory concentration (MIC) of 32 µg/mL (≈ 56.9 µM).

Another assay relates to Burkholderia cepacia. Kind of assay: Antimicrobial activity against Burkholderia cepacia BIG 121 after 18 hrs by micro dilution method. The assay is classed as functional. Particulars: BIG 121, 18 h.
Turning to `O=C(O)CC(O)(CC(=O)NCC(=O)N1CCN(c2cc3c(cc2F)c(=O)c(C(=O)O)cn3C2CC2)CC1)C(=O)O` (racemic), the MIC was more than 36 µg/mL.

The test system of another assay is Stenotrophomonas maltophilia. Kind of assay: Antimicrobial activity against Stenotrophomonas maltophilia N1127 after 18 hrs by micro dilution method. The assay is classed as functional. As to conditions: N1127, 18 h.
Take `O=C(O)CC(O)(CC(=O)NCC(=O)N1CCN(c2cc3c(cc2F)c(=O)c(C(=O)O)cn3C2CC2)CC1)C(=O)O` (racemic): the minimum inhibitory concentration (MIC) worked out at 32 µg/mL (≈ 56.9 µM).

A further assay has as its system Stenotrophomonas maltophilia. Kind of assay: Antimicrobial activity against Stenotrophomonas maltophilia N1124 after 18 hrs by micro dilution method. The assay is classed as functional. Particulars: N1124, 18 h.
`O=C(O)CC(O)(CC(=O)NCC(=O)N1CCN(c2cc3c(cc2F)c(=O)c(C(=O)O)cn3C2CC2)CC1)C(=O)O` (racemic) registered an MIC of 32 µg/mL (≈ 56.9 µM).

Another assay concerns Stenotrophomonas maltophilia. The assay is described as follows: Antimicrobial activity against Stenotrophomonas maltophilia N1119 after 18 hrs by micro dilution method. In kind it is functional. Particulars: N1119, 18 h.
Turning to `O=C(O)CC(O)(CC(=O)NCC(=O)N1CCN(c2cc3c(cc2F)c(=O)c(C(=O)O)cn3C2CC2)CC1)C(=O)O` (racemic), the MIC is more than 36 µg/mL.

Tested on in another assay: not listed separately
The assay is described as follows: Inhibition of DNA gyrase (unknown origin) assessed as reduction in supercoiled form of DNA at 20 uM using ethidium bromide staining by gel electrophoresis.
Conditions: not given
With `O=C(O)CC(O)(CC(=O)NCC(=O)N1CCN(c2cc3c(cc2F)c(=O)c(C(=O)O)cn3C2CC2)CC1)C(=O)O` (racemic), the inhibition result was “Active”.

The test system of the next assay is Staphylococcus aureus. The assay is described as follows: Ratio of compound MIC to ciprofloxacin MIC for Staphylococcus aureus (Oxford) NCTC 6571 after 18 hrs by micro dilution method. The assay is classed as functional.
Conditions: not given
As to `O=C(O)CC(O)(CC(=O)NCC(=O)N1CCN(c2cc3c(cc2F)c(=O)c(C(=O)O)cn3C2CC2)CC1)C(=O)O` (racemic), the Ratio came out at 37.6.
